# Laboratory results taken from patent US20130072505A1, “6,9-Disubstituted Purine Derivatives and Their Use for Treating Skin” (priority 2006, published 2013).
# Entries after “also recorded” stand apart in the source; their conditions may differ. Where two headings read alike, the source gives them in different places. Marks after values point to notes of the source that are not given here.
# Key:
# [1] = system: cultured human fibroblasts; conditions: cited from earlier work
# [2] = system: Rat C6 glioma (ATCC No. CCL107); test: anti-inflammatory activity: isoproterenol-induced intracellular cAMP synthesis; assay type: cell-based; conditions: cAMP after 30 min with (−)-isoproterenol; for IC50: Rattus norvegicus, C6 glioma, 0.5 h, read-out: Anti-inflammatory Activity I50
# Protocol: Anti-inflammatory activity of several of the 6,9-disubstituted purine derivatives of this invention was determined; kinetin was also evaluated as a control. Rat C6 glioma (ATCC No. CCL107) was cultivated in monolayer in serum-free chemically defined medium containing Ham's F10/minimal essential medium (1:1 v/v), 2 mM L-glutamine, 1% (v/v) minimal essential medium vitamins (100×), 1% (v/v) minimal essential medium nonessential amino acids (100×), 100 U/ml penicillin, […], and 30 nM sodium selenite. Incubation was performed at 37° C. in a humidified atmosphere. The assays were performed in the logaritmic growth phase at a density of 2.5×10^5 cells/cm^2. Intracellular cAMP synthesis was induced by addition of 5 mM (−)-isoproterenol; various amounts of test compounds were added at the same time as the (−)-isoproterenol. After 30 min incubation at 37° C., the medium was removed and the cellular amount of cAMP was determined using the cAMP-enzyme immunoassay kit from Amersham. The I50 value was determined from a dose-response curve in duplicate.
# photodamaged facial skin = test: earlier clinical study of topically applied kinetin (0.1%); assay type: in vivo, human; conditions: kinetin 0.1% topical; for Mean Improvement from Baseline: Coarse Wrinkles / Mean Improvement from Baseline: Fine Wrinkles / Mean Improvement from Baseline: Mottled Hyperpigmentation / Mean Improvement from Baseline: Overall Skin Condition / Mean Improvement from Baseline: Roughness: expert evaluation; for Subjects Reporting Improvement from Baseline: Blotchiness / Subjects Reporting Improvement from Baseline: Color / Subjects Reporting Improvement from Baseline: Fine Wrinkles / Subjects Reporting Improvement from Baseline: Texture: self assessment
# Description: This Example compares the clinical data for topically applied 6-furfurylamino-9-(2-tetrahydropyranyl)purine (0.10%) taken from Example 23 with similar clinical data generated for topically applied kinetin (0.1%) from an earlier study. The protocol for the earlier clinical trial for kinetin was similar to the protocol as described in Example 23 for the inventive compound; thirty two female volunteers completed the earlier kinetin study. This comparison is based on the expert evaluations and self evaluations of skin condition for eight and twelve week data for some of the parameters evaluated in both studies.
# [3] = system: Human diploid fibroblasts (HCA cells); test: inhibition of senescence, β-galactosidase staining; assay type: cell-based; conditions: test compounds about 50 μM at each passage; for Senescent Cells (%) HCA25: passage 25; for Senescent Cells (%) HCA80: passage 80
# Protocol: Inhibition of senescence by several of the 6,9-disubstituted purine derivatives of this invention was determined; kinetin was also evaluated as a control. […] The medium used for the cell cultivation was removed, the cells were washed twice in PBS, and fixed in 2-3 ml of fixing solution comprised of a 2% formaldehyde and 0.2% glutaraldehyde in PBS. The cells were incubated at room temperature for 5 minutes, and then washed twice with PBS. The cells were subsequently incubated at 37° C. (without CO2) for 1 to 16 hours in 2-3 ml of the solution comprising potassium ferricyanide (5 mM), potassium ferrocyanide (5 mM), MgCl2 (2 mM), X-gal (5-bromo-4-chloro-3-indolyl-β-D-galactopyranoside) (1 mg/ml), in citric/phosphate buffer (pH 6.0). The test compounds (about 50 μM) were added to the medium at each passage. […] In this experiment, only senescent cells were stained blue due to the action of β-galactosidase on the substrate.
# mouse fibroblasts NIH3T3 = test: in vitro cytotoxic activity, Calcein AM microtiter assay; assay type: cell-based; conditions: read-out: GI50 NIH-3T3
# Protocol: (§1) In vitro cytotoxic activity of several of the 6,9-disubstituted purine derivatives of this invention was determined using a microtiter assay with Calcein AM and a panel of cell lines of different histogenetic and species origin; kinetin was also examined as a control. Because only metabolically active cells cleave Calcein AM (tetraacetoxymethyl ester of calcein), the intracellular concentration of calcein corresponds to the number of vital cells in the culture.
# (§2) The following cell lines were used: human osteosarcoma (HOS); breast carcinoma MCF-7; human myeloid leukemia K-562; and mouse fibroblasts NIH3T3. The cells were maintained in Nunc/Corning 80 cm^2 plastic tissue culture flasks and cultured in cell culture medium (DMEM with 5 g/l glucose, 2 mM glutamine, 100 U/ml penicillin, 100 μg/ml streptomycin, 10% fetal calf serum, and sodium bicarbonate).
# (§3) The cell suspensions were prepared and diluted according to the particular cell type and the expected target cell density (2.500-30.000 cells per well based on cell growth characteristics) were added by pipette (80 μl) into 96/well microtiter plates. Inoculates were allowed a pre-incubation period of 24 hours at 37° C. and 5% CO2 for stabilization. Four-fold dilutions of the intended test concentration were added at time zero in 20 μl aliquots to the microtiter plate wells. The test compounds were generally evaluated at six 4-fold dilutions. The highest well concentration used in the present study was 166.7 μM. All samples were examined in triplicates. Incubations of cells with the tested compounds was for 72 hours at 37° C., in 5% CO2 atmosphere and 100% humidity. At the end of the incubation period, Calcein AM was added to a final concentration of 1 μg/ml incubated for 1 hour. Fluorescence intensity (FI) was measured with a Labsystem FIA Reader Fluoroscan Ascent (UK). The cell survival (GI50) was calculated using the following equation: GI50=([…])/(mean FIcontrol well−mean FIblank)×100%. The GI50 value, the drug concentration lethal to 50% of the cells, was calculated from the obtained dose response curves.
# human osteosarcoma (HOS) = test: as above; assay type: cell-based; conditions: 72 hours, highest concentration 166.7 μM
# Protocol: as §1, §2, §3
# [4] = system: human myeloid leukemia K-562; test: as above; assay type: cell-based; conditions: K562, 72 hours, highest concentration 166.7 μM
# Protocol: as §1, §2, §3
# breast carcinoma MCF-7 = test: as above; assay type: cell-based; conditions: Homo sapiens, MCF7; 72 hours; highest concentration 166.7 μM
# Protocol: as §1, §2, §3
# [5] = system: Human forskin fibroblasts (cell line BJ); test: in vitro cytotoxic activity, MTT assay; assay type: cell-based; conditions: 72 hours; BJ fibroblasts at middle passage
# Protocol: In vitro cytotoxic activity of several of the 6,9-disubstituted purine derivatives of this invention against human diploid fibroblasts was determined by standard MTT assay optimized for 96-well plates. The assay is based on spectrofotometric measurement of the product of metabolic conversion of MTT by mitochondria of living cells.
# Human forskin fibroblasts (cell line BJ) at middle passage were maintained in 75 cm^2 plastic tissue culture flasks and cultured in cell culture medium (DMEM with 5 g/l glucose, 2 mM glutamine, 100 U/ml penicillin, 100 μg/ml streptomycin, 10% fetal calf serum, and sodium bicarbonate).
# About 5,000 cells were seeded per well of the 96-well plate. After 24 hours the cell culture medium was replaced with the cell culture medium containing a test compound. The test compounds were evaluated at six 2-fold dilutions. The highest concentration used in the present study was usually 200 μM. In the case of compounds with limited solubility in the culture medium the highest concentration was adjusted. Every test compound was examined in five replicates. Cells with the test compounds were incubated for 72 hours at 37° C. in 5% CO2 atmosphere and 100% humidity. At the end of the incubation period, the culture medium was replaced with the cell culture medium containing MTT (0.5 mg/ml) and cells were incubated for another 3 hours. The formazan formed was solubilized by DMSO and absorbance at 570 nm was measured. Ability of the tested compounds to inhibit MTT reducing activity of the cells was calculated as IC=(Acompound exposed well−mean Ablank)/(mean Acontrol well−meanAblank)×100%. IC10, the drug concentration causing 10% decrease in MTT reducing activity, was calculated from the obtained dose response curves.
# [6] = NIH3T3, 72 hours, highest concentration 166.7 μM
smiles,measurement,setting,value
"c1coc(CNc2ncnc3nc[nH]c23)c1 [Kinetin, N6-furfuryl-adenine]",morphological and biochemical characteristics associated with serial passaging of cells,[1],delayed the onset and decreased the extent of many morphological and biochemical characteristics associated with serial passaging of cells
same,Anti-inflammatory Activity Effect,[2],inactive; also recorded: Not active
same,Mean Improvement from Baseline: Coarse Wrinkles,photodamaged facial skin; Eight Week Data,4%
same,Mean Improvement from Baseline: Fine Wrinkles,photodamaged facial skin; Eight Week Data,2%
same,Mean Improvement from Baseline: Mottled Hyperpigmentation,photodamaged facial skin; Eight Week Data,25%*
same,Mean Improvement from Baseline: Overall Skin Condition,photodamaged facial skin; Eight Week Data,3%
same,Mean Improvement from Baseline: Roughness,photodamaged facial skin; Eight Week Data,35%
same,Mean Improvement from Baseline: TEWL,photodamaged facial skin; Eight Week Data,13%
same,Subjects Reporting Improvement from Baseline: Blotchiness,photodamaged facial skin; Eight Week Data,50%
same,Subjects Reporting Improvement from Baseline: Color,photodamaged facial skin; Eight Week Data,53%
same,Subjects Reporting Improvement from Baseline: Fine Wrinkles,photodamaged facial skin; Eight Week Data,57%
same,Subjects Reporting Improvement from Baseline: Texture,photodamaged facial skin; Eight Week Data,77%
same,Mean Improvement from Baseline: Coarse Wrinkles,photodamaged facial skin; Twelve Week Data,4%
same,Mean Improvement from Baseline: Fine Wrinkles,photodamaged facial skin; Twelve Week Data,6%*
same,Mean Improvement from Baseline: Mottled Hyperpigmentation,photodamaged facial skin; Twelve Week Data,25%*
same,Mean Improvement from Baseline: Overall Skin Condition,photodamaged facial skin; Twelve Week Data,4%*
same,Mean Improvement from Baseline: Roughness,photodamaged facial skin; Twelve Week Data,52%*
same,Mean Improvement from Baseline: TEWL,photodamaged facial skin; Twelve Week Data,15%
same,Subjects Reporting Improvement from Baseline: Blotchiness,photodamaged facial skin; Twelve Week Data,74%
same,Subjects Reporting Improvement from Baseline: Color,photodamaged facial skin; Twelve Week Data,71%
same,Subjects Reporting Improvement from Baseline: Fine Wrinkles,photodamaged facial skin; Twelve Week Data,71%
same,Subjects Reporting Improvement from Baseline: Texture,photodamaged facial skin; Twelve Week Data,87%
same,Senescent Cells (%) HCA50,[3],5%
same,Senescent Cells (%) HCA25,[3],3%
same,Senescent Cells (%) HCA80,[3],38%
same,GI50,"mouse fibroblasts NIH3T3; NIH3T3, 72 h",155 µM
same,GI50,human osteosarcoma (HOS),> 167 µM
same,GI50,[4],164 µM
same,GI50,breast carcinoma MCF-7,> 167 µM
COc1ccc(CNc2ncnc3c2ncn3C2CCCCO2)cc1 (stereo not shown) [6-(4-methoxybenzylamino)-9-(2-tetrahydropyranyl)purine],IC10 (concentration causing 10% decrease in MTT reducing activity),[5],>100 µM
same,melting point,,137 to 138 °C
same,Senescent Cells (%) HCA50,[3],3%
same,Senescent Cells (%) HCA25,[3],4%
same,Senescent Cells (%) HCA80,[3],26%
same,GI50,mouse fibroblasts NIH3T3; [6],> 167 µM
same,GI50,human osteosarcoma (HOS),> 167 µM
same,GI50,[4],> 167 µM
same,GI50,breast carcinoma MCF-7,> 167 µM
"COc1cc(CNc2ncnc3c2ncn3C2CCCCO2)cc(OC)c1 (stereo not shown) [6-(3,5-dimethoxybenzylamino)-9-(2-tetrahydropyranyl)purine]",IC50,[2],11 µM
same,Anti-inflammatory Activity Effect,[2],Inhibition
same,IC10 (concentration causing 10% decrease in MTT reducing activity),[5],>200 µM
same,GI50,mouse fibroblasts NIH3T3; [6],> 167 µM
same,GI50,human osteosarcoma (HOS),> 167 µM
same,GI50,breast carcinoma MCF-7,> 167 µM
COc1ccc(CNc2ncnc3c2ncn3C2CCCO2)cc1 (stereo not shown) [6-(4-methoxybenzylamino)-9-(2-tetrahydrofuranyl)purine],melting point,,182 to 183 °C
same,GI50,mouse fibroblasts NIH3T3; [6],> 167 µM
same,GI50,human osteosarcoma (HOS),> 167 µM
same,GI50,breast carcinoma MCF-7,> 167 µM
COc1cccc(CNc2ncnc3c2ncn3C2CCCO2)c1 (stereo not shown) [6-(3-methoxybenzylamino)-9-(2-tetrahydrofuranyl)purine],melting point,,87 to 88 °C
same,GI50,mouse fibroblasts NIH3T3; [6],> 167 µM
same,GI50,human osteosarcoma (HOS),> 167 µM
same,GI50,breast carcinoma MCF-7,> 167 µM
"COc1cccc(CNc2ncnc3c2ncn3C2CCCCO2)c1OC (stereo not shown) [6-(2,3-dimethoxybenzylamino)-9-(2-tetrahydropyranyl)purine]",GI50,mouse fibroblasts NIH3T3; [6],> 167 µM
same,GI50,human osteosarcoma (HOS),> 167 µM
same,GI50,breast carcinoma MCF-7,> 167 µM
COc1cccc(CNc2ncnc3c2ncn3C2CCCCO2)c1 (stereo not shown) [6-(3-methoxybenzylamino)-9-(2-tetrahydropyranyl)purine],IC50,[2],7 µM
same,Anti-inflammatory Activity Effect,[2],Inhibition
same,IC10 (concentration causing 10% decrease in MTT reducing activity),[5],>100 µM
same,melting point,,134 to 135 °C
same,Senescent Cells (%) HCA50,[3],5%
same,Senescent Cells (%) HCA25,[3],5%
same,Senescent Cells (%) HCA80,[3],24%
c1ccc(Nc2ncnc3c2ncn3C2CCCCO2)cc1 (stereo not shown) [6-phenylamino-9-(2-tetrahydropyranyl)purine],IC50,[2],45 µM
same,Anti-inflammatory Activity Effect,[2],Inhibition
